Measurements from patent publication US20180111949A1, “NOVEL INDUSTRIAL CRYSTALLIZATION METHOD OF CEFUROXIME SODIUM AND PREPARATION THEREOF” (HAINAN LINGKANG PHARMACEUTICAL CO., LTD, priority 2016, published 2018).
Values joined by “and” are separate entries in the source; they are usually repeats but may differ in a detail not shown here. Identical values can stand only once.

Key:
[1] = cited from earlier work
[2] = Flowability test, angle of repose by funnel method; type: physicochemical; details: refined Cefuroxime Sodium prepared in Example 1
Procedure: In order to examine the flowability of the refined Cefuroxime Sodium prepared in Example 1, the angle of repose was measured by a funnel method. Test method: The particles were placed in a fixed funnel, and were […] freely to a horizontal plane to form a disk-shaped stacked body with a bottom radius of r, and the height of the stacked body was measured as H. The results were calculated according to the equation of tan θ=H/r and were shown in the following table: […]

[3] = pH, quality research per Chinese Pharmacopoeia 2010 Part 2; type: physicochemical; details: crystalline powder
Procedure: (§1) Referring to the quality standard of the raw material in “Part 2 of Chinese Pharmacopoeia 2010 Edition”, the quality research on crystalline powder of Cefuroxime Sodium was conducted in Example 1˜4 and Comparative Example 1, and the results were shown as follows: […]

[4] = Bacterial endotoxin, quality research per Chinese Pharmacopoeia 2010 Part 2; details: compliance with pharmacopoeia standard
Procedure: as §1

[5] = Abnormal toxicity, quality research per Chinese Pharmacopoeia 2010 Part 2; details: compliance with pharmacopoeia standard
Procedure: as §1

[6] = Clarity of the solution, quality research per Chinese Pharmacopoeia 2010 Part 2; type: physicochemical; details: compliance with pharmacopoeia standard
Procedure: as §1

[7] = Color of the solution, quality research per Chinese Pharmacopoeia 2010 Part 2; type: physicochemical; details: compliance with pharmacopoeia standard
Procedure: as §1

Row | SMILES | Solubility in chloroform ([1]; chloroform) | Solubility in ethanol ([1]; ethanol) | Solubility in methanol ([1]; methanol) | Solubility in water ([1]; water) | Angle of repose θ, average value ([2]; average of three measurements) [°] | Angle of repose θ ([2]; single measurements, funnel method) | pH [3] | Bacterial endotoxin [4] | Abnormal toxicity [5] | Clarity of the solution [6] | Color of the solution [7]
1 | CO/N=C(\C(=O)N[C@@H]1C(=O)N2C(C(=O)[O-])=C(COC(N)=O)CS[C@H]12)c1ccco1.[Na+] [Cefuroxime Sodium, Sodium (6R, 7R)-7-[2-furyl (methoxyimino)acetylamino]-3-carbamoyloxymethyl-8-oxo-5-thia-1-azabicyclo [4.2.0]oct-2-ene-2-carboxylate] | insoluble | insoluble | slightly soluble | soluble | 26.1 | 25.9° and 26.1° and 26.2° | – | – | – | – | –
2 | CO/N=C(\C(=O)N[C@@H]1C(=O)N2C(C(=O)[O-])=C(COC(N)=O)CS[C@H]12)c1ccco1.[Na+] [Comparative Example 1, Cefuroxime Sodium] | – | – | – | – | – | – | pH = 7.5 | Compliance | Compliance | Compliance | –
3 | CO/N=C(\C(=O)N[C@@H]1C(=O)N2C(C(=O)[O-])=C(COC(N)=O)CS[C@H]12)c1ccco1.[Na+] [Example 1, Cefuroxime Sodium] | – | – | – | – | – | – | pH = 7.3 | Compliance | Compliance | Compliance | Compliance
4 | CO/N=C(\C(=O)N[C@@H]1C(=O)N2C(C(=O)[O-])=C(COC(N)=O)CS[C@H]12)c1ccco1.[Na+] [Example 2, Cefuroxime Sodium] | – | – | – | – | – | – | pH = 7.5 | Compliance | Compliance | Compliance | Compliance
5 | CO/N=C(\C(=O)N[C@@H]1C(=O)N2C(C(=O)[O-])=C(COC(N)=O)CS[C@H]12)c1ccco1.[Na+] [Example 3, Cefuroxime Sodium] | – | – | – | – | – | – | pH = 7.4 | Compliance | Compliance | Compliance | Compliance
6 | CO/N=C(\C(=O)N[C@@H]1C(=O)N2C(C(=O)[O-])=C(COC(N)=O)CS[C@H]12)c1ccco1.[Na+] [Example 4, Cefuroxime Sodium] | – | – | – | – | – | – | pH = 7.0 | Compliance | Compliance | Compliance | Compliance
